# Measured values taken from ChEMBL document CHEMBL1201862, “PubChem BioAssay data set” (2004).
#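 Briefly, cells in 96-well plates were exposed to five compound concentrations for 48 h, and endpoints were estimated by linear interpolation. GI50 is the concentration that inhibits growth by half.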 The source made the active and inactive calls. Cut-off read from the data, not from the text of the source: active = GI50 up to about 1.1 µM and inactive = higher.
# Legend:
# Experiment in all cases: DTP human tumour cell line panel, 48 h
# [1] = test system: 786-0
# [2] = test system: A498
# [3] = test system: A549
# [4] = test system: ACHN
# [5] = test system: CCRF-CEM
# [6] = test system: COLO 205
# [7] = test system: DLD-1
# [8] = test system: DMS-114
# [9] = test system: DMS-273
# [10] = test system: EKVX
# [11] = test system: HCC 2998
# [12] = test system: HCT-116
# [13] = test system: HCT-15
# [14] = test system: HL-60
# [15] = test system: HOP-18
# [16] = test system: HOP-62
# [17] = test system: HT-29
# [18] = test system: IGROV-1
# [19] = test system: K562
# [20] = test system: KM-20L2
# [21] = test system: KM12
# [22] = test system: LOX IMVI
# [23] = test system: LXFL 529
# [24] = test system: M14
# [25] = test system: M19-MEL
# [26] = test system: MOLT-4
# [27] = test system: Malme-3M
# [28] = test system: NCI-H226
# [29] = test system: NCI-H23
# [30] = test system: NCI-H460
# [31] = test system: NCI-H522
# [32] = test system: OVCAR-3
# [33] = test system: OVCAR-4
# [34] = test system: OVCAR-5
# [35] = test system: OVCAR-8
# [36] = test system: RPMI-8226
# [37] = test system: RXF 393
# [38] = test system: SF-295
# [39] = test system: SF-539
# [40] = test system: SK-MEL-28
# [41] = test system: SK-MEL-2
# [42] = test system: SK-MEL-5
# [43] = test system: SK-OV-3
# [44] = test system: SN12C
# [45] = test system: SNB-19
# [46] = test system: SNB-75
# [47] = test system: SNB-78
# [48] = test system: SR
# [49] = test system: SW-620
# [50] = test system: TK-10
# [51] = test system: U-251
# [52] = test system: UACC-257
# [53] = test system: UACC-62
# [54] = test system: UO-31
# [55] = test system: XF498
# [56] = test system: CAKI-1
# [57] = test system: HOP-92
# [58] = test system: SF-268
smiles,measurement,setting,value
CC(=O)O[C@]1(C)OC(=O)[C@@H](CC(C)C)N1[N+](=O)[O-],GI50,[1],> 100 µM (inactive)
same,GI50,[2],> 100 µM (inactive)
same,GI50,[3],> 100 µM (inactive)
same,GI50,[4],> 100 µM (inactive)
same,GI50,[5],> 100 µM (inactive)
same,GI50,[6],> 100 µM (inactive)
same,GI50,[7],> 100 µM (inactive)
same,GI50,[8],> 100 µM (inactive)
same,GI50,[9],> 100 µM (inactive)
same,GI50,[10],> 100 µM (inactive)
same,GI50,[11],> 100 µM (inactive)
same,GI50,[12],> 100 µM (inactive)
same,GI50,[13],> 100 µM
same,GI50,[14],> 100 µM (inactive)
same,GI50,[15],> 100 µM (inactive)
same,GI50,[16],> 100 µM (inactive)
same,GI50,[17],> 100 µM (inactive)
same,GI50,[18],> 100 µM (inactive)
same,GI50,[19],> 100 µM (inactive)
same,GI50,[20],> 100 µM (inactive)
same,GI50,[21],> 100 µM (inactive)
same,GI50,[22],> 100 µM (inactive)
same,GI50,[23],> 100 µM (inactive)
same,GI50,[24],> 100 µM (inactive)
same,GI50,[25],> 100 µM (inactive)
same,GI50,[26],> 100 µM (inactive)
same,GI50,[27],> 100 µM (inactive)
same,GI50,[28],> 100 µM (inactive)
same,GI50,[29],> 100 µM (inactive)
same,GI50,[30],> 100 µM (inactive)
same,GI50,[31],> 100 µM (inactive)
same,GI50,[32],> 100 µM (inactive)
same,GI50,[33],> 100 µM (inactive)
same,GI50,[34],> 100 µM (inactive)
same,GI50,[35],> 100 µM (inactive)
same,GI50,[36],> 100 µM (inactive)
same,GI50,[37],60.7 µM (inactive)
same,GI50,[38],> 100 µM (inactive)
same,GI50,[39],> 100 µM (inactive)
same,GI50,[40],> 100 µM (inactive)
same,GI50,[41],> 100 µM (inactive)
same,GI50,[42],> 100 µM (inactive)
same,GI50,[43],> 100 µM (inactive)
same,GI50,[44],> 100 µM (inactive)
same,GI50,[45],> 100 µM (inactive)
same,GI50,[46],> 100 µM (inactive)
same,GI50,[47],> 100 µM (inactive)
same,GI50,[48],> 100 µM (inactive)
same,GI50,[49],> 100 µM (inactive)
same,GI50,[50],> 100 µM (inactive)
same,GI50,[51],> 100 µM (inactive)
same,GI50,[52],> 100 µM (inactive)
same,GI50,[53],> 100 µM (inactive)
same,GI50,[54],> 100 µM (inactive)
same,GI50,[55],< 0.01 µM (active)
CC1=C(/C(C)=N/NC(=O)C(N)=O)Sc2ccccc2N1,GI50,[1],> 100 µM (inactive)
same,GI50,[2],> 100 µM (inactive)
same,GI50,[3],> 100 µM (inactive)
same,GI50,[4],> 100 µM (inactive)
same,GI50,[56],> 100 µM (inactive)
same,GI50,[5],> 100 µM (inactive)
same,GI50,[6],> 100 µM (inactive)
same,GI50,[7],> 100 µM (inactive)
same,GI50,[8],> 100 µM (inactive)
same,GI50,[9],> 100 µM (inactive)
same,GI50,[10],> 100 µM (inactive)
same,GI50,[11],> 100 µM (inactive)
same,GI50,[12],10 µM (inactive)
same,GI50,[13],> 100 µM
same,GI50,[14],> 100 µM (inactive)
same,GI50,[15],> 100 µM (inactive)
same,GI50,[16],> 100 µM (inactive)
same,GI50,[57],95.1 µM (inactive)
same,GI50,[17],> 100 µM (inactive)
same,GI50,[18],> 100 µM (inactive)
same,GI50,[19],> 100 µM (inactive)
same,GI50,[20],> 100 µM (inactive)
same,GI50,[21],> 100 µM (inactive)
same,GI50,[22],> 100 µM (inactive)
same,GI50,[23],> 100 µM (inactive)
same,GI50,[24],> 100 µM (inactive)
same,GI50,[25],> 100 µM (inactive)
same,GI50,[26],> 100 µM (inactive)
same,GI50,[27],> 100 µM (inactive)
same,GI50,[29],> 100 µM (inactive)
same,GI50,[30],> 100 µM (inactive)
same,GI50,[31],> 100 µM (inactive)
same,GI50,[32],> 100 µM (inactive)
same,GI50,[33],> 100 µM (inactive)
same,GI50,[34],> 100 µM (inactive)
same,GI50,[35],> 100 µM (inactive)
same,GI50,[36],> 100 µM (inactive)
same,GI50,[37],> 100 µM (inactive)
same,GI50,[58],> 100 µM (inactive)
same,GI50,[38],> 100 µM (inactive)
same,GI50,[39],> 100 µM (inactive)
same,GI50,[40],> 100 µM (inactive)
same,GI50,[41],> 100 µM (inactive)
same,GI50,[42],> 100 µM (inactive)
same,GI50,[43],> 100 µM (inactive)
same,GI50,[44],> 100 µM (inactive)
same,GI50,[45],> 100 µM (inactive)
same,GI50,[46],65.8 µM (inactive)
same,GI50,[47],> 100 µM (inactive)
same,GI50,[49],> 100 µM (inactive)
same,GI50,[50],> 100 µM (inactive)
same,GI50,[51],> 100 µM (inactive)
same,GI50,[52],> 100 µM (inactive)
same,GI50,[53],> 100 µM (inactive)
same,GI50,[54],> 100 µM (inactive)
same,GI50,[55],> 100 µM (inactive)
